Results: patent US12594259B2, “Treatment regimen for the treatment of neurological diseases or conditions” (ACCURE THERAPEUTICS, S.L., priority 2019, dated 2026)
Entries after “also recorded” stand apart in the source; their conditions may differ. Where two headings read alike, the source gives them in different places.

Tests used:
[1] = tested on: Lysolecithin induced optic neuritis in SD Rats; assay: Retinal ganglion cell (RGC) count in lysolecithin induced acute optic neuritis model; format: in vivo, Sprague Dawley Rat
Procedure: (§1) • Receipt of animals (Male Sprague Dawley Rats, Age: 12-13 weeks, Body weight range at the time of study initiation: 306.8 — 385.2 g) and acclimatization of animals for a period of at least one week • Day 0: Administration of Lysolecithin in optic nerve • Administration of test compound (BN201) daily (Day 0 to day 6=7 doses in total) intra-peritoneally (IP) at various doses (10 mg/Kg, 25 mg/Kg, 70 mg/Kg) and Intravenously (infusion 25 mg/Kg) over 2 h for block1. • On day 6, Sampling of blood from block1 for plasma at predetermined time points (8-9 time points) for PK and tissue collection (Eye and optic nerve) for histopathological assessment. • Determination of plasma levels of BN201 by LC-MS/MS • Determination of Pharmacokinetic Parameters of BN201 by WinNonlin Analysis • Test compound administration (IP@10 & 25 mg/Kg) once daily (Day 0 to day 6=7 doses in total) for block2; Tissue collection (Eye and optic nerve collection during termination of the study) on day 14, and 28 for histopathological assessment. 3. Animal Conditioning
(§2) Animals were anesthetized; the shaved skin was disinfected with 75% ethanol. A 1 cm incision was made in the skin above the orbit of an eye. The lacrimal glands and extraocular muscles were resected to expose 3 mm of the optic nerve under an operating microscope. The dura and arachnoid matter around the optic nerve were opened longitudinally. A small amount of dye was placed on the dura to show the microinjection site. This is done to identify the focal lesion for the histology. Microinjection was performed with a glass micropipette attached to a Hamilton syringe. The pipette was inserted into the optic nerve as superficially as possible at 2 mm posterior to the globe, and 0.8 μL of 1% lysolecithin (with 0.02% Evan's Blue) was slowly pressure-injected into the nerve over approximately 30 seconds. The sham control rats (animals without disease) were injected with 0.02% Evan's Blue in 0.8 μL saline without lysolecithin. After the injection, the skin incision was sutured, and antibiotic solution were administered to prevent infection.
(§3) • Group 1 and 2 served as sham and pathological control respectively and only saline was administered • Test compound was delivered once at various doses (as mentioned above) through IP or IV infusion in the respective groups. The first dosage was given 1 hour after Lysolecithin injection and repeated once/day until the end of the experiment • On day 6, blood was collected at various time points after administration of test item for drug concentration measurement: • Group 3-5 (IP groups): Pre-dose, 0.25, 0.5, 1, 4, 8 h, 12 h & 24 h (8 time points) • Group 6 (IV Infusion group): Pre-dose, then the following times post infusion: Oh (end of the infusion), 0.25 h, 0.5 h, 1 h, 4 h, 8 h, 12 h & 24 h (9 time points) • ˜200 μL of blood per time point was collected from Jugular vein for all the time points in K2EDTA blood collection tubes and stored at 4° C. until plasma separation within 30 minutes. After plasma separation, all the plasma samples were stored in two aliquots at −80° C. until the completion of all the time points. Further, one aliquot of plasma samples was submitted together to the DMG/KG for drug concentration analysis. 9. Observation and Readouts 9.1 Body weight
(§4) • Animals were euthanized on Day 7 with CO2 and were perfused transcardially with saline and 4% paraformaldehyde. Optic nerves (from globe to chiasm) and eye were removed and were fixed in 1% paraformaldehyde overnight. Eye from all the animals were collected in Davidson's fixative. • All tissues were processed in an automatic tissue processor and embedded in paraffin. Five-micro meter-thick (5 μm) transverse sections were made at the site of injections (at the place of the dye) using a rotary microtome. • Serial sections of each optic nerve were obtained (4-6 sections). […]

[2] = tested on: Lysolecithin induced optic neuritis in SD Rats; assay: Inflammation (H&E stained optic nerve) in lysolecithin induced acute optic neuritis model; format: in vivo, Sprague Dawley Rat; settings: BN201 treatment, conclusions over blocks 1 and 2
Procedure: as §1
Animals were anesthetized; the shaved skin was disinfected with 75% ethanol. […]
• Group 1 and 2 served as sham and pathological control respectively and only saline was administered • Test compound was delivered once at various doses (as mentioned above) through IP or IV infusion in the respective groups. […] Observation and Readouts 9.1 Body weight […]

[3] = tested on: Lysolecithin induced optic neuritis in SD Rats; assay: Axonal loss score (BSS stained optic nerve) in lysolecithin induced acute optic neuritis model; format: in vivo, Sprague Dawley Rat
Procedure: as §1, §2, §3, §4

[4] = Phase 1 trial in healthy volunteers (pharmacokinetics); format: in vivo; settings: humans
[5] = tested on: Lysolecithin induced optic neuritis in SD Rats; assay: Overall efficacy in lysolecithin induced acute optic neuritis model; format: in vivo, Sprague Dawley Rat; settings: daily IV 25 mg/Kg (2 h infusion) compared to 10, 25 and 70 mg/Kg IP
Procedure: The aim of Block1 was to determine the efficacy of BN201 administered intraperitoneally at various doses (10 mg/Kg, 25 mg/Kg, 70 mg/Kg) and intravenously at 25 mg/Kg in Lysolecithin induced optic neuritis in SD Rats (7 days study).
The aim of Block2 was to determine the efficacy of BN201 in long duration model of lysolecithin induced optic neuritis in SD rats (14 and 28 day study) […]
• Group 1 and 2 served as sham and pathological control respectively and only saline was administered • Test compound was delivered once at various doses (as mentioned above) through IP or IV infusion in the respective groups. […] Observation and Readouts 9.1 Body weight

[6] = tested on: Lysolecithin induced optic neuritis in SD Rats; assay: Demyelination score (Luxol fast blue stained optic nerve) in lysolecithin induced acute optic neuritis model; format: in vivo, Sprague Dawley Rat
Procedure: as §1, §2, §3, §4

[7] = Body weight in lysolecithin induced acute optic neuritis study; format: in vivo, Sprague Dawley Rat; settings: Blocks 1 & 2, compared to pathological control group
Procedure: Body weight measurement was performed every morning from day 0 to day 7. All animals were observed regularly for clinical signs.

[8] = Plasma pharmacokinetics of BN201 in rats (LC-MS/MS, WinNonlin); format: in vivo, Sprague Dawley Rat; settings: 7 doses, Mean ± SEM; for Vd: iv, 25 mg/kg; for AUC(0-inf) / AUC(0-t) / Cmax / Tmax / half-life / AUC_%Extrap (obs): rat plasma
Procedure: as §1, §3
Study samples were processed by protein precipitation method using cold acetonitrile. In brief, 10 μL of plasma was mixed with 200 μL of acetonitrile containing 100 ng/mL-Verapamil as internal standard. The contents were vortexed to ensure mixing and the precipitated protein was removed by centrifugation at 4000 rpm for 15 minutes at 4° C. The supernatant was collected and submitted for Bioanalysis.

[9] = tested on: serum-glucocorticoid (SGK) pathway; settings: cited from earlier work
[10] = BN201 treatment, short term and long term, summary vs untreated groups
[11] = Block 2, day 28, 25 mg/Kg IP day 0 to day 6, vs placebo (p<0.05)
[12] = male, Sprague Dawley, IP 10 mg/Kg once daily
[13] = male, Sprague Dawley, IP 25 mg/Kg once daily
[14] = male, Sprague Dawley, IP 70 mg/Kg once daily
[15] = male, Sprague Dawley, IV infusion 25 mg/Kg over 2 h once daily

- half-life ([4]; human, in vivo): ≤ 8 h
- clearance of the drug [4]: quick clearance
- drug accumulation [4]: lack of drug accumulation
- MRT inf ([8]; male, Sprague Dawley, plasma, rat, IV infusion 25 mg/Kg over 2 h once daily): 3 h
- clearance ([8]; male, Sprague Dawley, plasma, rat, IV infusion 25 mg/Kg over 2 h once daily, read-out: CLp (converted)): 31.7 mL/min/kg
- Vd ([8]; male, Sprague Dawley, rat, plasma, rat, IV infusion 25 mg/Kg over 2 h once daily, read-out: Vd): 15.8 ± 2.2 L/kg
- Vd ([8]; male, Sprague Dawley, rat, plasma, rat, IV infusion 25 mg/Kg over 2 h once daily, read-out: Vdss): 5.7 ± 1.2 L/kg
- AUC(0-inf) [8, 12]: 6990 ng·h/mL
- AUC(0-t) [8, 12]: 6920 ± 385 ng·h/mL
- Cmax [8, 12]: 6680 ± 349 ng/mL
- Tmax [8, 12]: 0.3 h
- half-life [8, 12]: 5.5 ± 0.9 h
- AUC(0-inf) [8, 13]: 14700 ± 840 ng·h/mL
- AUC(0-t) [8, 13]: 14500 ± 859 ng·h/mL
- Cmax [8, 13]: 14400 ± 1540 ng/mL
- Tmax [8, 13]: 0.3 h
- half-life [8, 13]: 5.8 ± 0.2 h
- AUC(0-inf) [8, 14]: 62800 ± 2760 ng·h/mL
- AUC(0-t) [8, 14]: 62400 ± 2720 ng·h/mL
- Cmax [8, 14]: 34700 ± 2010 ng/mL
- Tmax [8, 14]: 0.3 h
- half-life [8, 14]: 4.7 ± 0.8 h
- AUC(0-inf) [8, 15]: 15400 ± 1810 ng·h/mL
- AUC(0-t) [8, 15]: 15100 ± 1780 ng·h/mL
- Cmax [8, 15]: 10400 ± 1320 ng/mL
- Tmax [8, 15]: 2 h
- half-life [8, 15]: 6.2 ± 0.9 h
- AUC_%Extrap (obs) ([8]; IP 10 mg/Kg once daily): 1 ± 0.2%
- AUC_%Extrap (obs) ([8]; IP 25 mg/Kg once daily): 1 ± 0.3%
- AUC_%Extrap (obs) ([8]; IP 70 mg/Kg once daily): 0.5 ± 0.1%
- AUC_%Extrap (obs) ([8]; IV infusion 25 mg/Kg over 2 h once daily): 1.6 ± 0.2%
Structure (SMILES): CC(C)CN(CC(=O)N(CCCN1CCCC1=O)CC(N)=O)C(=O)CNCCc1ccccc1F [BN201, [N-(2-(2′-fluorophenyl)ethyl)-glycyl]-[N-(2-methylpropyl)-glycyl]-N-[3-(2′-oxopyrrolidinyl)-propyl]glycinamide]
- retinal ganglion cells [1, 10]: significant improvement in retinal ganglion cells
- protection against retinal ganglion cell loss ([1]; Block 1, day 7, 25 mg/Kg IP): 48%
- protection against retinal ganglion cell loss ([1]; Block 1, day 7, 70 mg/Kg IP): 69%
- RGC count ([1]; Block 1, day 7, BN201 treated groups vs pathological control): trend of increased RGC count
- RGC count ([1]; Block 1, day 7, IV infusion 25 mg/Kg vs pathological control): statistically significant improvement in RGC count
- RGC count [1, 11]: improvements; also recorded: significantly higher
- inflammation [2]: reduced inflammation
- axonal loss ([3]; BN201 treatment, conclusions over blocks 1 and 2): reduced
- protection against axonal loss (axonal loss score) ([3]; Block 1, day 7, 10, 25 and 70 mg/Kg IP): 36-39%
- protection against axonal loss ([3]; Block 1, day 7, IV infusion 25 mg/Kg): 62%
- Axonal loss score ([3]; Block 2, day 28, 10 mg/Kg IP day 0 to day 6, vs placebo (p<0.05)): significant reduction in axonal loss; also recorded: significantly lower
- Axonal loss score [3, 11]: significant reduction in axonal loss; also recorded: significantly lower
- protection of axons against injury ([3]; IP or IV, 10 to 70 mg/Kg/day for 6 days, short term (7 days) and long term (up to day 28 post-injury)): able to protect axons against injury
- protection against optic neuritis [5]: superior protection against optic neuritis
- demyelination [6, 10]: reduced; also recorded: significant improvement
- protection against demyelination (demyelination score) ([6]; Block 1, day 7, 10 mg/Kg IP): 13%
- protection against demyelination (demyelination score) ([6]; Block 1, day 7, 25 mg/Kg IP): 15%
- protection against demyelination ([6]; Block 1, day 7, 25 mg/Kg IV infusion): 22%
- protection against demyelination (demyelination score) ([6]; Block 1, day 7, 70 mg/Kg IP): 44%
- Demyelination score ([6]; Block 2, day 28, 10 mpk IP day 0 to day 6, vs placebo (p<0.05)): significantly lower
- Demyelination score ([6]; Block 2, day 28, 25 mpk IP day 0 to day 6, vs placebo (p<0.05)): significantly lower
- Body weight [7]: did not significantly change the body weight
- activation of the SGK pathway, including phosphorylation of Foxo3 or NDRG1 [9]: activates the serum-glucocorticoid (SGK) pathway
